Each structure is given as a SMILES string.

The assay has as its system H460 cells. The assay is described as follows: PKCiota siRNA knockdown, apoptosis by FACS in H460 cells. The assay is classed as cell-based, human. The settings on record: 1 μM, 12 h. On the procedure: Knockdown of PKCiota suppressed Oncrasin-mediated apoptosis and cytotoxicity. To investigate possible role of PCKiota in Oncrasin-1 mediated cytotoxicity, PKCiota was knocked down in H460 cells by using oligo ribonucleotides. H460 cells were treated with 200 pM PKCiota siRNA for 24 h, and then with DMSO or 1 μM Oncrasin for another 12 h. After that, cells harvested for analysis of apoptosis by fluorescence-activated cell sorting (FACS) and for expression of PKCiota by Western blot analysis. […] To further study the effect of atypical PKC in Oncrasin-induced cytotoxicity, the inventors obtained plasmids encoding PKCiota and PKCzeta siRNA from Origene Corporation and made stable PKCiota and PKCzeta knockdown T29Kt1 cells. […] The IC50 in PKCiota knockdown T29Kt1 cells were 100 fold higher than parental T29K cells. […] Thus, compounds with synthetic lethality for PKCiota might be useful for treatment of those cancers.

With `O=Cc1cn(Cc2ccc(Cl)cc2)c2ccccc12` [Oncrasin K001, 1H-Indole-3-carboxaldehyde, 1-[(4-chlorophenyl)methyl]-(9CI)], the “apoptosis in H460 cells after knockdown of PKCiota by siRNA” value is “dramatically suppressed Oncrasin-induced apoptosis”.

The values are drawn from patent US8883841B2, “Oncogenic ras-specific cytotoxic compound and methods of use thereof” (The Board of Regents of the University of Texas System, priority 2005, dated 2014).
